Measured values: the supplement of paper PMC10307832

Columns and labels:
Experiment in all cases: relative viability (nuclei count vs DMSO), 5 days (fraction); higher = more cells survive
[1] = compound: OCc1c[nH]c2ccccc12 [Indole-3-carbinol] + CC(=O)c1c(C)c2cnc(Nc3ccc(N4CCNCC4)cn3)nc2n(C2CCCC2)c1=O [Palbociclib] (partner 0.5 µM)
Outline: (§1)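 Cells from lung cancer lines were seeded into 1536-well plates and, one day later, dosed by pin tool. Treatments were either a single drug or a fixed dose of an anchor drug with five library-drug doses (not always all listed) in √10 steps. After 5 days, nuclei were stained in a one-step fixation (final 0.05% Triton X-100, 1% formaldehyde, 1 ug/ml Hoechst) and counted on 4× images, and relative viability is the treated-to-vehicle nuclei ratio, as the median of duplicate plates.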

[2] = compound: OCc1c[nH]c2ccccc12 [Indole-3-carbinol] + Nc1nc2[nH]cc(CCc3ccc(C(=O)N[C@@H](CCC(=O)O)C(=O)O)cc3)c2c(=O)[nH]1 [Pemetrexed] (partner 0.2 µM)
Outline: as §1

[3] = compound: OCc1c[nH]c2ccccc12 [Indole-3-carbinol] + CC(C)C[C@H](NC(=O)[C@H](Cc1ccccc1)NC(=O)c1cnccn1)B(O)O [Bortezomib] (partner 0.002 µM)
Outline: as §1

[4] = compound: OCc1c[nH]c2ccccc12 [Indole-3-carbinol] + CS(=O)(=O)N1CCN(Cc2cc3nc(-c4cccc5[nH]ncc45)nc(N4CCOCC4)c3s2)CC1 [Pictilisib] (partner 1 µM)
Outline: as §1

[5] = compound: OCc1c[nH]c2ccccc12 [Indole-3-carbinol] + CS(=O)(=O)CCNCc1ccc(-c2ccc3ncnc(Nc4ccc(OCc5cccc(F)c5)c(Cl)c4)c3c2)o1 [Lapatinib] (partner 2 µM)
Outline: as §1

Row | Cell Line | relative viability ([1]; first compound 0.253 µM) | relative viability ([1]; first compound 0.8 µM) | relative viability ([1]; first compound 2.53 µM) | relative viability ([1]; first compound 8 µM) | relative viability ([2]; first compound 0.253 µM) | relative viability ([2]; first compound 0.8 µM) | relative viability ([2]; first compound 2.53 µM) | relative viability ([2]; first compound 8 µM) | relative viability ([3]; first compound 0.253 µM) | relative viability ([3]; first compound 0.8 µM) | relative viability ([3]; first compound 2.53 µM) | relative viability ([3]; first compound 8 µM) | relative viability ([4]; first compound 0.253 µM) | relative viability ([4]; first compound 0.8 µM) | relative viability ([4]; first compound 2.53 µM) | relative viability ([4]; first compound 8 µM) | relative viability ([5]; first compound 0.253 µM) | relative viability ([5]; first compound 0.8 µM) | relative viability ([5]; first compound 2.53 µM) | relative viability ([5]; first compound 8 µM)
1 | PC-14 | 0.538 | 0.509 | 0.541 | 0.462 | 0.14 | 0.127 | 0.13 | 0.146 | 0.878 | 0.971 | 0.85 | 0.874 | 0.738 | 0.875 | 0.735 | 0.652 | 0.288 | 0.321 | 0.342 | 0.266
2 | RERF-LC-KJ | 1.14 | 0.968 | 0.941 | 1.15 | 0.47 | 0.461 | 0.482 | 0.466 | 1.19 | 1.08 | 1.13 | 1.04 | 0.512 | 0.541 | 0.562 | 0.581 | 0.866 | 0.891 | 0.802 | 0.787
3 | SK-LU-1 | 0.404 | 0.36 | 0.383 | 0.372 | 1.02 | 1.03 | 1.09 | 1.02 | 1.32 | 1.03 | 1.35 | 0.987 | 0.568 | 0.405 | 0.522 | 0.551 | 0.941 | 0.903 | 1.06 | 0.829
4 | SW 1573 | 0.377 | 0.41 | 0.449 | 0.37 | 0.803 | 0.846 | 0.881 | 0.975 | 1.15 | 1.18 | 1.12 | 0.997 | 0.361 | 0.577 | 0.544 | 0.425 | 1.2 | 1.05 | 1.16 | 1.08
5 | UMC-11 | 0.338 | 0.34 | 0.319 | 0.32 | 0.787 | 0.757 | 0.751 | 0.717 | 0.748 | 0.726 | 0.757 | 0.904 | 0.792 | 0.836 | 0.764 | 0.789 | 1.03 | 0.953 | 0.91 | 0.951
